# Experimental data published in US20130034496A1, “POSITRON EMISSION TOMOGRAPHY TRACER” (UNIVERSITY OF IOWA RESEARCH FOUNDATION, priority 2011, published 2013).
# Where two headings read alike, the source gives them in different places.
# Tests used:
# MIAPaCa tumor = assay: Animal studies with ^14C-MTHF, distribution of radioactivity; assay type: in vivo; conditions: nude mice with MIAPaCa tumor; after one hour
# cancerous cell lines [1] = assay: Washout of label from cells / retention; assay type: cell-based, human
# Protocol: (§1) Washout of label from cells—After labeling cells grown in four plates as described before, one culture plate was processed and total incorporation was measure by liquid scintillation counter (LSC). This uptake was regarded as 100%. From the remaining three culture plates, medium was removed, cells were washed twice with cold PBS and then normal growth medium (5 mL) was added at 37° for 30 min. The radiotracer released in the medium after 30 min was counted by LSC in triplicate, and cells were replenished with fresh 5 mL medium for next 30 min washing. The release of radiotracer was followed up to 120 min. Measurement of cell growth rate-The cells were seeded at a density of 4×10^4 cells/cm^2 in each of four 6-cm (20 cm^2) plates containing 5 mL medium and placed in incubator maintained at the conditions described above. Once the cells were in log-phase (48 h post plating), two plates were processed to count the total cells. The average number of cells from these plates was regarded as pl. After next 24 h, the remaining two plates were processed, and the total cells were counted again (p2). The doubling time was then calculated by using formula
# (§2) To examine the release of radioactivity from these cells, the ^14C-MTHF-loaded cells (after 2 hours uptake) were placed in fresh complete medium containing an excess of unlabeled folate at 37° C. The medium was replaced after every 30 min and the radiotracer released in the medium was measured by LSC. […] In case of cancerous cell lines, the release of the radiotracer was not more than 20%. After 30 min, the release of the radioactivity in the medium was slow and reached to the background value after two successive washings. After washing, the label retained in each cell line was determined and plotted in FIG. 6.
# normal cells = assay: Washout of label from cells / retention; assay type: cell-based, human
# Protocol: as §1, §2
# cells [2] = assay: Cell cycle analysis, aphidicolin-treated cells; assay type: cell-based; conditions: cells treated with aphidicolin
# Protocol: (§3) Cell cycle analysis—Cells in log phase at the same confluency used for uptake experiments or growth inhibited cells by aphidicolin treatment were harvested using trypsin and washed twice with cold PBS. The cells were suspended as 1×10^6/ml density in PBS and fixed with 70% ethanol at −20° C. The DNA content of the cells was stained with 1 mL of staining buffer containing propidium iodide (5 μg/ml), RNAse A (1 mg/ml), glucose (1 mg/ml) in PBS. The stained cells were filtered through 70 μm nylon strainer and then analyzed for DNA content on FASCan flow-cytometer (Becton Dickinson) using Flo-Jo software.
# (§4) Cell cycle vs. MTHF uptake. Biosynthesis of DNA and its precursor bases increases during S-phase of the cell cycle. […] Unsynchronized cells, as used for labeling, were alcohol-fixed and the DNA stained with propidium iodide (PI). DNA content can be used as a proxy for determining cell cycle stage. The DNA content was then analyzed by FACSCAN flow cytometer and data were processed by using Facscaliber software. […] Alternatively, when the cells were treated with aphidicolin, an inhibitor of DNA polymerase-α, the proliferation index is reduced up to 4-fold. […] In another experiment, we treated cells with a chemotherapeutic agent (methotrexate) for 24 h and then incubated with ^14C-MTHF for 1 h and observed a 90-95% decline in uptake relative to cells not treated with methotrexate.
# HMEC [3] = assay: Cell cycle analysis (propidium iodide, flow cytometry); assay type: cell-based, human; conditions: aphidicolin-arrested cells
# Protocol: as §3, §4
# HT-29 [4] = assay: as above; assay type: cell-based, human; conditions: aphidicolin-arrested cells
# Protocol: as §3, §4
# FHC [5] = assay: as above; assay type: cell-based, human; conditions: aphidicolin-arrested cells
# Protocol: as §3, §4
# MDA-MB231 [6] = assay: as above; assay type: cell-based, human; conditions: aphidicolin-arrested cells
# Protocol: as §3, §4
# MCF-7 [7] = assay: as above; assay type: cell-based, human; conditions: aphidicolin-arrested cells
# Protocol: as §3, §4
# hTERT-HME1 [8] = assay: as above; assay type: cell-based, human; conditions: aphidicolin-arrested cells
# Protocol: as §3, §4
# MCF-10A [9] = assay: as above; assay type: cell-based, human; conditions: aphidicolin-arrested cells
# Protocol: as §3, §4
# [10] = system: MIAPaCa, PANC1, H292, A549, SQ20B, Cal 27 and Fadu; assay: Uptake and retention in cancer cell lines (Example 3); assay type: cell-based
# Protocol: Additional studies were performed as described above using the following cell lines:
# Pancreatic cancer - MIAPaCa and PANC1
# Head and Neck cancer—SQ20B, Cal 27 and Fadu
# cells [11] = assay: ^14C-MTHF uptake after methotrexate treatment; assay type: cell-based; conditions: methotrexate 24 h, then ^14C-MTHF 1 h
# FHC [12] = system: FHC
# HT-29 [13] = system: HT-29
# [14] = Protocol: Stability of MTHF in culture medium—Folate-free RPMI 1640 (Invitrogen), fortified with 10% Fetal bovine serum (FBS, Sigma, qualified) (1 mL) in an eppendorf tube (1.5 mL) was spiked with MTHF (10 nM-100 μM) containing ˜0.05 μCi (˜1×10^5 DPM) of ^14C-MTHF as a radiotracer, and incubated under normal culture conditions (see below) for 0, 5, 30, 60, and 120 min. […] The mixture was incubated at 30° C. for 15 min and then filtered through 10K MWCO filter to remove protein. A 100 μl filtrate was analyzed by HPLC to determine the amount of dTMP formed from MTHF. A zorbax column (4.6 mm×15 cm) was eluted with a gradient of 2% to 5% methanol in 100 mM potassium phosphate, pH 6 over 2 min. The isocratic elution at this composition was conducted for 3 min and then changed linearly to 50% methanol in next 5 min. The system was held at this composition for next 5 min, and then increased up to 95% methanol to clean the column. Under these conditions, dUMP was eluted at 3.2 min, dTMP eluted at 5.8 min and MTHF/DHF eluted at 16 min. Identification and quantitation of dTMP was accomplished by comparing the retention time and area under peak of the standard solutions of dTMP.
# Stability of MTHF in culture medium—The stability of MTHF might limit its pharmaceutical use. […] The inventors therefore measured the stability of MTHF in culture medium. Concentrations of MTHF ranging from 10 nM to 100 μM, containing a fixed amount of radiotracer (C-14) were incubated in culture medium, under the conditions used for cell incorporation experiments. MTHF remaining in the medium at different time points was measured by quantitatively converting dUMP +^14C-MTHF to ^14C-dTMP by the ecTSase-catalyzed reaction. The amount of ^14C-dTMP formed was then analyzed by HPLC connected with radioactive flow detector (FIG. 2). Data were fitted to a single exponential decay. The analytical assay in which ^14C-MTHF is quantitatively converted to ^14C-dTMP was developed, tested, and used in many of our kinetic isotope effect measurements while studying TSase.
# hTERT-HME1 [15] = system: hTERT-HME1
# HMEC [16] = system: HMEC
# MCF-7 [17] = system: MCF-7
# MDA-MB231 [18] = system: MDA-MB231
# cancerous cell lines [19] = system: cancerous cell lines
# MCF-10A [20] = system: MCF-10A
# [21] = first 30 min incubation in fresh medium after 2 hours uptake
# [22] = normal growing cells, 20 μM MTHF with ^14C tracer
molecule,measurement,setting,value
"Nc1nc2c(c(=O)[nH]1)N1[14CH2]N(c3ccc(C(=O)N[C@@H](CCC(=O)O)C(=O)O)cc3)C[C@H]1CN2 [^14C-MTHF, [11-^14C]—(R)—N^5,N^10-methylene-5,6,7,8-tetrahydrofolate]",distribution of radioactivity/cell,MIAPaCa tumor,most of the radioactivity/cell was in the tumor and kidney
same,label retained after washing (FIG. 6),"cancerous cell lines [1]; MDA-MB231, MCF7, hTERT, HT29, successive 30 min washes, 2 h",retained the highest amount of tracer
same,release of radiotracer,cancerous cell lines [1]; [21],not more than 20%
same,release of radiotracer,normal cells; [21],> 50%
same,label retained after washing (FIG. 6),"normal cells; non-cancer counterparts, successive 30 min washes, 2 h","retained a much lower, near-background amount of label"
C[C@@]1(CO)[C@H](O)CC[C@@]2(C)[C@H]1CC[C@H]1C[C@@H]3C[C@@]12CC[C@]3(O)CO [aphidicolin],reduction of proliferation index,cells [2],up to 4 fold
same,Proliferation index (S + G2M),HMEC [3],4%
same,Proliferation index (S + G2M),HT-29 [4],6%
same,Proliferation index (S + G2M),FHC [5],3%
same,Proliferation index (S + G2M),MDA-MB231 [6],6%
same,Proliferation index (S + G2M),MCF-7 [7],5%
same,Proliferation index (S + G2M),hTERT-HME1 [8],6%
same,Proliferation index (S + G2M),MCF-10A [9],3%
"CN(Cc1cnc2nc(N)nc(N)c2n1)c1ccc(C(=O)N[C@@H](CCC(=O)O)C(=O)O)cc1 [methotrexate, reference compound]",effect of methotrexate on tracer uptake,[10]; small dose of MTX,uptake enhancement
same,decline in ^14C-MTHF uptake relative to untreated cells,cells [11],90-95%
"(R)—N^5,N^10-methylene-5,6,7,8-tetrahydrofolate [MTHF]",uptake in FHC cells (FIG. 4),FHC [12]; 20 μM MTHF,not higher than background
same,MTHF uptake,FHC [12]; aphidicolin-arrested cells,0.54 ×10^−3/10^6 cells
same,MTHF uptake,FHC [12]; [22],0.94 ×10^−3/10^6 cells
same,uptake and retention of the radioactivity,"[10]; pancreatic, lung, head and neck cancer cell lines",good uptake and retention
same,MTHF uptake,HT-29 [13]; aphidicolin-arrested cells,3.82 ×10^−3/10^6 cells
same,"uptake, HT29 versus normal FHC cells","HT-29 [13]; colon cancer HT29 versus FHC, 20 μM MTHF",at least 30 times
same,MTHF uptake,HT-29 [13]; [22],48.9 ×10^−3/10^6 cells
same,rate of decomposition kdec,[14]; 10 nM MTHF in culture medium,0.00121 s⁻¹
same,half-life,[14]; 20 μM MTHF in culture medium,1.3 h
same,rate of decomposition kdec,[14]; 100 μM MTHF in culture medium,3.23e-05 s⁻¹
same,stability of MTHF (time),[14]; 100 μM MTHF in culture medium,up to 330 min
same,MTHF uptake,hTERT-HME1 [15]; aphidicolin-arrested cells,5.74 ×10^−3/10^6 cells
same,MTHF uptake,hTERT-HME1 [15]; [22],67.3 ×10^−3/10^6 cells
same,MTHF uptake,HMEC [16]; aphidicolin-arrested cells,1.23 ×10^−3/10^6 cells
same,MTHF uptake,HMEC [16]; [22],5.98 ×10^−3/10^6 cells
same,MTHF uptake,MCF-7 [17]; aphidicolin-arrested cells,4.92 ×10^−3/10^6 cells
same,MTHF uptake,MCF-7 [17]; [22],80.0 ×10^−3/10^6 cells
same,MTHF uptake,MDA-MB231 [18]; aphidicolin-arrested cells,3.45 ×10^−3/10^6 cells
same,MTHF uptake,MDA-MB231 [18]; [22],81.3 ×10^−3/10^6 cells
same,"label uptake, cancerous versus non-cancerous control cell lines","cancerous cell lines [19]; HEMC-hTERT, MCF7 and MDA-MB231 versus HMEC, MCF10A, 20 μM MTHF",more than 3 fold
same,time at which uptake of label reached a maximum level,"cancerous cell lines [19]; cancerous cell lines, steady state",60 min
same,MTHF uptake,MCF-10A [20]; aphidicolin-arrested cells,2.34 ×10^−3/10^6 cells
same,MTHF uptake,MCF-10A [20]; [22],7.79 ×10^−3/10^6 cells
